A short description of the data set: Human HepG2 cell viability assay in 384 well format. The format is toxicity, cell-based. Also on record: dose 125 nL, time 70.5 hour; cytotoxicity at 70.5 h: concentration not given beside the values. The following applies: HepG2 cells, read-out: Inhibition.
For `Cc1cnn(CC2CCCCN2Cc2nc(C)c3ccccc3n2)c1` (stereo unspecified), the cytotoxicity at 70.5 h is -1.81%.
As for `Cc1cnn(CC2CCCN2Cc2nc3ccccc3c(=O)[nH]2)c1` (stereo unspecified), the figure is -7.22%; as for `Fc1cccc(-n2ccc(CN3CCCC3Cn3cncn3)n2)c1` (stereo unspecified), -9.03%; as for `Cc1cnn(CC2CCCN2C(=O)c2n[nH]c3ccccc23)c1` (stereo unspecified), -6.9%.
The figure for `Cc1cccc(C(=O)N2CCCC(c3noc(C)n3)C2)n1` (stereo unspecified) is -1.99%; for `CCc1c(C(=O)NCC2CCS(=O)(=O)C2)cnn1-c1ccccc1` (stereo unspecified) it is -4.41%; for `CC(=O)N1CCN(C(=O)CCCc2nnc(-c3ccccc3)o2)CC1` it is -2.32%.
As for `Cc1ccc(-n2ncc(C(=O)NCC3CCS(=O)(=O)C3)c2C)cc1` (stereo unspecified), the figure is -4.72%; as for `Cc1cc(CN2CCN(C(=O)NCc3ccco3)CC2)no1`, 18.9%.
For the compound `CCc1ccc(CNC(=O)N2CCN(Cc3cc(C)on3)CC2)s1`, the cytotoxicity at 70.5 h was -4.93%.
As for `CC(C)c1nc(CN2CCC(c3ccnn3CCO)CC2)no1`, the figure is 19.5%; as for `OCCn1nccc1C1CCN(Cc2nc(C3CC3)no2)CC1`, -1.33%.
The figure for `O=C(CCc1nnc(-c2ccccc2)o1)N1CCN(CC2CC2)CC1` is 1.86%.
The figure for `O=C(Cc1n[nH]c2ccccc12)N1CCCC1Cn1cccn1` (stereo unspecified) is 0.964%; for `Fc1cccc(-c2nc(CN3CCCC(Cn4cncn4)C3)co2)c1` (stereo unspecified) it is 16.1%.
For the compound `Cc1nsc2ncc(C(=O)N3CCCC3c3cnn(C)c3)cc12` (stereo unspecified), the cytotoxicity at 70.5 h was -0.553%.
As for `O=c1[nH]c(CCN2CCCCC2Cn2cccn2)nc2ccccc12` (stereo unspecified), the figure is -1.7%; as for `CCc1nc(C2CCCN(C(=O)c3cc(C(C)C)[nH]n3)C2)no1` (stereo unspecified), -3.59%.
As for `Cc1nccn1CC1CCCN1S(=O)(=O)Cc1ccc(F)cc1` (stereo unspecified), the figure is -0.149%; as for `Cc1nc(C2CCCN(C(=O)c3ccc(N4CCCC4)nn3)C2)no1` (stereo unspecified), 0.493%.
As for `Cc1nc(C2CCCN(C(=O)c3ccc(Cl)cn3)C2)no1` (stereo unspecified), the figure is -5.54%; as for `Cc1cc(C(=O)N2CCCC2c2noc(C)n2)[nH]n1` (stereo unspecified), 1.6%.
As for `Cn1cc(C(=O)N2CCCC2c2noc(C3CC3)n2)c2ccccc21` (stereo unspecified), the cytotoxicity at 70.5 h is -3.41%.
`c1ccc(Cn2cc(CNCC3CNc4ccnn4C3)cn2)cc1` (stereo unspecified): the cytotoxicity at 70.5 h came to 32.4%.
The figure for `Cc1cccc(-c2nc(CN3CCc4cncnc4C3)no2)c1` is -4.67%.
The figure for `O=C(c1ccn(-c2cccc(Cl)c2)n1)N1CCN(CCO)CC1` is 0.676%.
As for `CC(=O)Nc1nc(C(=O)N2CCCC2c2noc(C3CC3)n2)cs1` (stereo unspecified), the figure is -3.64%; as for `c1cc(CNCC2CNc3ccnn3C2)cc(Cn2cccn2)c1` (stereo unspecified), 4.46%.
For `CCc1nc(C2CCCN2C(=O)c2csc(NC(C)=O)n2)no1` (stereo unspecified), the cytotoxicity at 70.5 h is -1.48%.
As for `CC(C)Oc1ncccc1CNC(=O)N1CCCC1c1ccsc1` (stereo unspecified), the figure is -0.144%.
Take `Cc1ncsc1C(=O)NC1CCN(Cc2ccc(C(N)=O)cc2)CC1`: the cytotoxicity at 70.5 h is 1.08%.
The figure for `Cc1cc2n(n1)CC(CNCc1ccccc1Cn1cccn1)CN2` (stereo unspecified) is 4.35%; for `OCc1ccccc1CNCC1CNc2ccnn2C1` (stereo unspecified) it is -1.22%.
The figure for `N#Cc1ccc(OCCN2CCc3cncnc3C2)cc1` is 0.4%.
As for `Cc1nnc2n1CCN(CCS(=O)(=O)c1ccc(Cl)cc1)C2`, the figure is 2.97%; as for `CC(C)(O)CN1CCN(C(=O)c2cccc(CC#N)c2)CC1`, 1.57%.
As to `CC(C)c1nnc(CN2CCN(CC(O)c3ccccc3)CC2)o1` (stereo unspecified), the cytotoxicity at 70.5 h is -0.811%.
With `O=C(c1cc2cc(F)ccc2[nH]1)N1CCCCC1Cn1cccn1` (stereo unspecified), the cytotoxicity at 70.5 h is -0.801%.
The figure for `CC(O)CN1CCN(C(=O)c2ccn(-c3ccc(F)cc3)n2)CC1` (stereo unspecified) is -3.45%; for `CC(C)c1nnc2n1CCN(CCS(=O)(=O)c1ccccc1)C2` it is -2.01%.
For the compound `CC(C)(C(N)=O)N1CCN(C(=O)c2ccn(-c3cccc(Cl)c3)n2)CC1`, the cytotoxicity at 70.5 h was -0.38%.
As for `Cc1cc(NC(=O)CN2CCc3cnc(C(C)C)nc3C2)on1`, the figure is -1.61%; as for `Cc1ccc(-c2nc(CN3CCc4cnc(C)nc4C3)no2)cc1`, 0.992%; as for `CCc1nc(CN2CCN(C(=O)N3CCCCC3)CC2)cs1`, 21.4%.
As for `CCOC(C)C(=O)N1CCCN(Cc2csc(CC)n2)CC1` (stereo unspecified), the figure is 22.4%; as for `CCc1nc(CN2CCCN(C(=O)CC(C)OC)CC2)cs1` (stereo unspecified), 51.7%.
The figure for `CN(Cc1cccnc1)C(=O)NC1CCN(Cc2ccccn2)CC1` is 0.886%; for `CC(c1ccc(F)cc1F)N1CCN(Cc2nccn2C)CC1` (stereo unspecified) it is -0.0589%.
With `CC(C)n1ccc(CN2CCOC(CNc3cccnn3)C2)n1` (stereo unspecified), the cytotoxicity at 70.5 h worked out at 3.22%.
The figure for `CC(C)(C)c1noc(CCCC(=O)NCC2CCS(=O)(=O)C2)n1` (stereo unspecified) is 0.495%; for `CC(C)c1noc(CCC(=O)NCC2CC2)n1` it is 23.5%; for `CC(C)(C)C(=O)NS(=O)(=O)c1ccc(C#N)cc1C(F)(F)F` it is -14.8%.
The figure for `CCc1nccn1C1CCCN(C(=O)CCc2nccs2)C1` (stereo unspecified) is -15.8%.
In the case of `COc1ccccc1N1CCC(CNCc2cccc(O)c2)C1` (stereo unspecified), the cytotoxicity at 70.5 h worked out at 8.44%.
The figure for `Cc1nn(C)c(Cl)c1C1CCCN1C(=O)c1cc[nH]n1` (stereo unspecified) is -13%; for `Cc1nn(C)c(Cl)c1C1CCCN1C(=O)c1ccc2nncn2c1` (stereo unspecified) it is 5.97%; for `CC(NCc1ccccc1Br)c1ccc2[nH]c(=O)[nH]c2c1` (stereo unspecified) it is 3.35%.
Regarding `c1cnnc(N2CCCC(NCc3nnc(-c4ccco4)o3)C2)c1` (stereo unspecified), the cytotoxicity at 70.5 h is 3.16%.
As for `CN(C)c1cc(CNC(=O)Nc2ccc(F)cc2)ccn1`, the figure is 12.6%.
The figure for `COc1ncccc1CNC(=O)c1cccc(C)n1` is 11.1%; for `CC1CCCN(C(=O)c2cccc(CS(C)(=O)=O)c2)C1` (stereo unspecified) it is 7.89%; for `COc1ncccc1NC(=O)c1cccc(C)n1` it is -7.22%.
As for `COc1ccc(CNCc2ccc(N3CCCCC3)nc2)cc1OC`, the figure is -4.42%; as for `CCC(NC(=O)c1ccco1)c1ccccc1OCC(=O)N1CCCC1` (stereo unspecified), -6.16%.
As to `CCC(NC(=O)CC(F)(F)F)c1ccccc1OCC(=O)N1CCCC1` (stereo unspecified), the cytotoxicity at 70.5 h was -7.99%.
The figure for `COc1ncccc1CNC(=O)c1cccnc1O` is -8.53%; for `CCOC1CCCN(C(=O)c2sccc2-n2cnnn2)C1` (stereo unspecified) it is -2.74%; for `O=C(O)c1cc(S(=O)(=O)N2CCOc3ccccc32)ccc1F` it is 0.682%.
Consider `Cc1nn(C)c(N(C)C)c1CNCCCN(C)S(C)(=O)=O`, for which the cytotoxicity at 70.5 h was -6.18%.
As for `CS(=O)(=O)Cc1cccc(C(=O)N2CCCC(n3cccn3)C2)c1` (stereo unspecified), the figure is 17.8%.
As for `c1csc(-c2nc(CNC3CCc4ncnn4C3)cs2)c1` (stereo unspecified), the cytotoxicity at 70.5 h is -16.5%.
As for `c1nc2n(n1)CC(NCc1csc(-c3ccsc3)n1)CC2` (stereo unspecified), the figure is -17.5%; as for `CCc1nnc2n1CCN(Cc1nc(-c3ccoc3)no1)C2`, -7.66%.
With `CN(C)c1cc(C(=O)N2CCCC(n3cccn3)C2)ccn1` (stereo unspecified), the cytotoxicity at 70.5 h is -11.4%.
The figure for `O=C(NCCOc1ccc(Cl)cc1)N1CCS(=O)(=O)CC1` is 9.92%.
Consider `Cc1ccc2oc(C(=O)N3CCC(C(=O)N4CCCC4)CC3)cc2n1`, for which the cytotoxicity at 70.5 h is -14.6%.
As for `Cc1c(F)cc(C(=O)O)cc1S(=O)(=O)Nc1cccc(C(F)F)c1`, the figure is -10.3%; as for `Cc1cc(C)c(OCC(=O)NS(=O)(=O)c2c(C)noc2C)c(C)c1`, 12.1%.
The figure for `COCc1nc(C(=O)NS(=O)(=O)c2cc(F)ccc2F)cs1` is 20.7%.
The figure for `O=C(CN1CCCS1(=O)=O)NCCOc1ccc2c(c1)CCC2` is 5.58%; for `Cc1cc(CNc2cc(Cl)ccc2OCCS(C)(=O)=O)no1` it is 13.3%.
`Cc1n[nH]c(C)c1C1COCCN1C(=O)c1cc(Cl)c[nH]1` (stereo unspecified): the cytotoxicity at 70.5 h is -5.39%.
The figure for `CN(Cc1ccccc1)CC(O)Cn1cnc2ccccc2c1=O` (stereo unspecified) is 6.62%; for `Clc1ccccc1-c1nc(CNC2CCc3ncnn3C2)cs1` (stereo unspecified) it is -1.51%; for `CCc1ncc(C(=O)N2CCOCC2c2c(C)n[nH]c2C)s1` (stereo unspecified) it is -2.25%.
As for `Cc1ccc(Cl)cc1N1CCC(CNC(=O)CCn2ccnn2)C1` (stereo unspecified), the figure is -6.67%; as for `Cc1cccn2cc(CC(=O)N3CCCC(n4cncn4)C3)nc12` (stereo unspecified), -3.85%.
As for `c1ccc(OC2CCCC2)c(CNC2CCc3ncnn3C2)c1` (stereo unspecified), the figure is 1.21%; as for `O=C(c1ccc(OCC2CC2)nc1)N1CCCC(n2cncn2)C1` (stereo unspecified), -12.6%; as for `Cc1ccc(Cl)cc1N1CCC(CNC(=O)CCn2ccnc2)C1` (stereo unspecified), -10.1%.
Take `NC(=O)C1CCN(C(=O)c2cccc(OCc3cscn3)c2)CC1`: the cytotoxicity at 70.5 h is -12.5%.
As for `O=C(c1ccc2c(c1)OCO2)N1CCN(c2cnccn2)CC1`, the figure is -3.98%; as for `COc1cccc(-n2nnc(C(=O)N3CCCC3)c2C)c1`, -13.2%.
In the case of `O=C(NCCCn1ccnc1)N1CCCC1c1cccs1` (stereo unspecified), the cytotoxicity at 70.5 h is -2.86%.
On to `O=C(NCCc1cccnc1)N1CCCC1c1ccsc1` (stereo unspecified), for which the cytotoxicity at 70.5 h was -0.435%.
As for `Cc1noc(C)c1CN(C)C(=O)NC1CCN(c2ncccn2)CC1`, the cytotoxicity at 70.5 h came to 35.3%.
As for `CN(C)c1cc(C(=O)N2CCN(c3cnccn3)CC2)ccn1`, the figure is -13.9%; as for `CCN(CC1CCOC1)C(=O)Nc1ccc(-n2cncn2)nc1` (stereo unspecified), -9.69%; as for `CC(Nc1cccc(CN2CCOC2=O)c1)C(=O)NC(N)=O` (stereo unspecified), 32%.
As for `CC(Nc1cccc(CN2CCOC2=O)c1)C(=O)N1CCNC1=O` (stereo unspecified), the figure is -6.02%; as for `Cn1ccc(CN2CCC(NC(=O)NC3CCCCC3)CC2)cc1=O`, -5.64%.
